Laboratory results: PubChem BioAssay AID248 (DTP/NCI, 2004)
Toxic doses and inconclusive results are not listed. Rule as the data show it: active = T/C of 150% or more; inactive = T/C below 125%.

Test system: L1210 leukemia ip in BDF1 mice, survival T/C
Experiment: NCI In Vivo Anticancer Drug Screen. Data for tumor model L1210 Leukemia (intraperitoneal) in B6D2F1 (BDF1) mice
Conditions: endpoint: mean survival time, higher = longer survival
Procedure, shortened: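 Tumor cells were implanted, animals were treated, and survival was followed. The result divides the treated measurement by the vehicle-control measurement.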

[1] = dose: 50.0 mg/kg/injection, schedule: Q01DX009 (ip), vehicle: saline

Measured: T/C

COC(=O)c1ccc(NCC(C)(C)N)cc1
inactive: dose: 12.0 mg/kg/injection, schedule: Q01DX001 (ip), vehicle: saline 94 % of control | dose: 12.0 mg/kg/injection, schedule: Q01DX009 (ip), vehicle: saline 98 % of control | dose: 12.0 mg/kg/injection, schedule: Q04DX003 (ip), vehicle: saline 97 % of control | dose: 25.0 mg/kg/injection, schedule: Q01DX001 (ip), vehicle: saline 96 % of control | dose: 25.0 mg/kg/injection, schedule: Q01DX009 (ip), vehicle: saline 105 % of control | dose: 25.0 mg/kg/injection, schedule: Q04DX003 (ip), vehicle: saline 104 % of control | dose: 50.0 mg/kg/injection, schedule: Q01DX001 (ip), vehicle: saline 101 % of control | [1] 93 % of control | dose: 50.0 mg/kg/injection, schedule: Q04DX003 (ip), vehicle: saline 97 % of control

CC12OC(c3ccccc3)(C3=C1C1CCC(C1)C3(C)C)c1ccccc12 (stereo unspecified)
inactive: [1] 89 % of control | dose: 100.0 mg/kg/injection, schedule: Q01DX001 (ip), vehicle: saline 103 % of control | dose: 200.0 mg/kg/injection, schedule: Q01DX001 (ip), vehicle: saline 100 % of control | dose: 400.0 mg/kg/injection, schedule: Q01DX001 (ip), vehicle: saline 112 % of control

C=CCC(C(=O)OC)C(=O)C(C)(C)C (stereo unspecified)
inactive: dose: 50.0 mg/kg/injection, schedule: Q01DX009 (ip), vehicle: saline with Tween-80 100 % of control | dose: 100.0 mg/kg/injection, schedule: Q01DX009 (ip), vehicle: saline with Tween-80 92 % of control | dose: 200.0 mg/kg/injection, schedule: Q01DX009 (ip), vehicle: saline with Tween-80 100 % of control
